Columns and labels:
[1] = test system: skin moisture, inner side of a forearm of probands; experiment: Long-term moisturizing effect, corneometer, two-week study; assay type: in vivo, human; conditions: 2% in test formulation 3.9, twice daily for 2 weeks; compared with vehicle; 12 probands
Method: In order to investigate the long-term effect of the moisturizing properties of compound 2.1, a study lasting two weeks was carried out with 12 probands. The probands received 2 formulations, one with 2% of compound 2.1 and one without active substance. They had to apply each of these formulations on the inner side of a forearm twice daily. The moisture content was measured before beginning to use and also after 2 weeks.
The moisture content was determined using a corneometer CM 825 (Courage & Khazaka). Before each measurement, the probands had to stay in a climate-controlled chamber (21-22° C., 55% R.H.) for at least 15 min. The difference in the corneometer units with respect to the starting value was calculated each time (ΔCU).

[2] = test system: skin moisture (stratum corneum), forearms of probands; experiment: In vivo moisturizer properties, corneometer, 2 hours after application; set-up: species or system human
Method: The skin moisture is determined in normal fashion using a corneometer.
With the corneometer principle, the skin moisture of the “outer layer” of the epidermis (stratum corneum) is determined by means of a capacity measurement. This principle is based on the fact that the dielectric constants of water and other substances differ. An appropriately shaped measuring capacitor reacts with different changes in capacity on the samples introduced into its sensing volume, which changes in capacity are recorded and evaluated fully automatically by the device. The active probe coated with special glass is pressed against the place on the skin to be measured and, after 1 second, the value measured by the corneometer, thus the degree of moisture on the skin surface, appears on the display
For the experiments described here, use is made of a corneometer CM 825 from Courage & Khazaka. The skin moisture was measured before and 2 hours after application of the test formulations. For this, 4 test panels were each time highlighted on the forearms of 14 probands, on which the different test formulations were applied. Before each measurement, the probands had to spend at least 15 min in a climate-controlled chamber (21-22° C., 55% R.H.).
The difference in the corneometer values before and after application of the test formulations was calculated. […]

[3] = test system: skin model (reconstructed human epidermis) damaged with SDS; experiment: LDH release after damaging the cells with SDS, O/W cream; assay type: cell-based
Method: (§1) In order to be able to characterize the skin care properties of the compounds 2.1 to 2.8, various in vitro tests were carried out on skin models (reconstructed human epidermis, company: SkinEthic).
The LDH concentration was determined with a commercially available test kit (LDH test kit, Roche Diagnostics, Mannheim, Germany).
Sodium dodecyl sulphate (SDS) is known for attacking the cell membrane and for resulting in increased LDH release. The experiment described below should investigate to what extent compound 2.1 can protect the cells after damaging with SDS.
The skin model was damaged with SDS for 40 min. Subsequently, the test formulation, an O/W cream with 1 or 4% of compound 2.1, was applied. The LDH release was measured 24 h and 48 h after application of the test formulation.

[4] = test system: skin roughness, inner side of a forearm of probands; experiment: Skin roughness by tape stripping and Bradford test; assay type: in vivo, human; conditions: 2% formulation twice daily
From the text: The skin roughness can be quantified in a simple way by means of tape stripping. The rougher the skin surface, e.g. because the skin lipid barrier is damaged, the weaker the binding of the skin cells. In some cases, with very rough skin, this can be seen with the naked eye. The outermost corneocytes are removed by tape stripping. In this connection, the more corneocytes stuck to the tape, the rougher the skin. The corneocytes are subsequently determined quantitatively using a commercially available Bradford test. This is based on the following principle: the triphenylmethane dye Coomassie Brilliant Blue G-250 (CBBG) forms complexes in acid solution both with the cationic and the nonpolar hydrophobic side chains of the proteins. […] Since the extinction coefficient of the dye/protein complex is in addition very much higher than that of the free dye, the increase in the absorption at 595 nm through the formation of the complex can be measured photometrically with high sensitivity against the free dye reagent and is a measure of the protein concentration of the solution.
The study was carried out with 12 probands who received two test formulations, one with 2% compound 2.1 and one without. […] Tape strips were taken and analyzed before the beginning of the application and also after 2 weeks and after 4 weeks. […]

[5] = Water retention capacity on an IMS film; conditions: 5.0% in test formulation 3.7; 4 hours at 21-22° C. and 72% R.H.; in comparison with the vehicle
From the text: The determination of the water retention capacity of active substances using the IMS film represents a simple screening test by which the moisturizing properties of active substances can be very satisfactorily investigated. The measurement is based on the following principle: The IMS film is a membrane which is covered with peptides, lipids and polymers and represents a greatly simplified skin model. The active substance interacts out of the formulation with the film. Combining with water takes place and thus the evaporation of the water is prevented or made more difficult.
Implementation: • 1. The weight of the IMS membrane is determined (W1). • 2. The test formulation is applied, the film is again weighed (W2) and the film is subsequently incubated at 21-22° C. and 72% R.H. for 4 hours. • 3. After the 4 hours have passed, the film is again weighed (W3). • 4. The water retention capacity of the formulation (WR) is calculated as follows: […]

[6] = test system: skin model (reconstructed human epidermis) damaged with SDS; experiment: XTT test with an O/W cream with compound 2.1 after SDS damage; assay type: cell-based; conditions: O/W cream with compound 2.1 applied after 0.25% SDS for 40 min; 24 h incubation
Method: as §1
The XTT test is based on the ability of the cells to reduce the dye XTT, which can be detected photometrically. This reaction is catalyzed by mitochondrial succinate dehydrogenase and requires NAD(P)H, which can only be formed by metabolically active cells. To sum up, the XTT test describes the viability of the cells.
The XTT test was carried out with a commercially available test kit and took place according to the manufacturer's instructions (XTT Test, Roche Diagnostics, Mannheim, Germany).
The skin model was first damaged with 0.25% SDS for 40 min. Subsequently, the test formulations were applied. After incubating for a time of 24 h, the viability of the cells was determined using the XTT test.
Test formulation: see Example 3.2.

[7] = test system: IL-1α; experiment: Anti-inflammatory action of an O/W cream with compound 2.1 (IL-1α after SDS damage); assay type: cell-based, human; conditions: O/W cream with 1% and 4% of compound 2.1 applied after SDS damage
Method: as §1
IL-1α is a […] which plays a central role in inflammatory reactions in the body. Sodium lauryl sulphate (SDS) is a skin-irritating surfactant which can give rise to irritant contact dermatitis in man, is used as model irritant in proband studies and, inter alia, induces the release of IL-1α. The IL-1α concentration was determined with a commercially available test kit (human IL-1α immunoassay, R&D Systems GmbH, Wiesbaden, Germany).
It should be investigated whether the anti-inflammatory effect of the short-chain zwitterionic compounds also appears when used from a cosmetic formulation. For this, skin models were damaged with SDS. Subsequently, the test formulation with 1% and 4% of compound 2.1 was applied. The IL-1α concentration was determined 24 and 48 h after application.

C[N+](C)(CCCNC=O)CC(=O)[O-] [Compound 2.1]
Moisture content (ΔCU) after 2 weeks [1]: further enhanced
Effectiveness on skin moisture with increasing concentration of use ([2]; 1.0% vs 4.0% in test formulation 3.8): clearly increased with increasing concentration of use
Skin moisture, increase in corneometer units (ΔCU) ([2]; 1.0/4.0% in test formulation 3.8, 14 probands): very clearly increased
Effectiveness on LDH release with 4% compared with 1% ([3]; O/W cream with 4% vs 1% of compound 2.1 after SDS damage): no clear increase in the effectiveness
Reduction of the SDS-induced increase in LDH release (total LDH after 24 and 48 h) ([3]; O/W cream with compound 2.1 applied after 40 min SDS damage, compared with vehicle): clearly intensified
Skin roughness (amount of protein on tape strips, based on the vehicle), two weeks ([4]; after using for two weeks, compared with the vehicle): clear reduction
Skin roughness (amount of protein on tape strips, based on the vehicle), further use ([4]; further use (after 4 weeks)): even more pronounced
Water retention capacity (WR) [5]: particularly strongly pronounced
Viability of the skin cells (XTT) after damaging with SDS [6]: more than redoubled
SDS-induced increase in IL-1α (overall concentration after 24 and 48 h) [7]: more strongly reduced in a concentration-dependent fashion

From patent US20110206623A1, “NOVEL DIPOLAR IONIC COMPOUNDS COMPRISING FORMULATIONS AND THE USE THEREOF” (EVONIK GOLDSCHMIDT GMBH, priority 2007, published 2011)
